From patent publication US8653108B1, “Oximes for treatment of peripheral and central nervous system exposure to acetyl cholinesterase inhibitors” (priority 2011, dated 2014)

Columns and labels:
[1] = test system: Madin Darby canine kidney cell line transfected with human MDR-1 gene; test: MDR/MDCK bidirectional transwell permeability assay; assay type: in vitro ADME
Procedure: (§1) See, Wang, Q. et al, Evaluation of the MDR-MDCK Cell Line As a Permeability Screen For The Blood Brain Barrier, Int. J. Pharm. 288(2) 349-359. The assay is a bidirectional assay in a transwell format system, assessing the permeability of compounds across a Madin Darby canine kidney cell line transfected with human MDR-1 gene. Efflux is assessed based on ratios from the basolateral and apical sides of the chamber.

human MDR-1 (P-gp) = test: as above; assay type: in vitro ADME, canine; details: dog
Procedure: as §1

Compound	Brain Penetration Classification [1]	Papp A-B ([1]; apical to basolateral) [×10⁻⁶ cm/s]	Papp B-A ([1]; basolateral to apical) [×10⁻⁶ cm/s]	Papp A→B (human MDR-1 (P-gp); MDCK-MDR1, apical to basolateral) [×10⁻⁶ cm/s]	Papp B→A (human MDR-1 (P-gp); MDCK-MDR1, basolateral to apical) [×10⁻⁶ cm/s]
CS(=O)(=O)[O-].CS(=O)(=O)[O-].ON=Cc1cc[n+](C[n+]2ccc(C=NO)cc2)cc1 [MMB4 DMS]	Low	<0.57	<0.57	–	–
CCN(CC)CCNC(=O)/C=N/O.Cl [Example 1, N-(2-(diethylamino)ethyl)-2-(hydroxyimino)acetamide hydrochloride]	Low	–	–	< 0.51	< 0.67
